Data reported in PubChem BioAssay (NCI).
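Grown in 96-well plates, cells were treated for 48 hours with each compound at five concentrations. Insufficient inhibition: endpoint recorded as highest concentration tested. GI50 = concentration required for 50% inhibition of growth. At the TGI there is no net growth.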

Key:
Assay in all cases: NCI anticancer screen, dose series, 48 h; in the data active means GI50 below about 0.43 µM; inactive means the rest
[1] = tested on: SK-MEL-2 melanoma
[2] = tested on: LOX IMVI melanoma
[3] = tested on: OVCAR-8 ovarian
[4] = tested on: SK-OV-3 ovarian
[5] = tested on: A498 renal
[6] = tested on: CAKI-1 renal
[7] = tested on: RXF 393 renal
[8] = tested on: SN12C renal
[9] = tested on: HCC-2998 colon
[10] = tested on: HL-60(TB) leukemia
[11] = tested on: SK-MEL-5 melanoma
[12] = tested on: M14 melanoma
[13] = tested on: MDA-MB-231 breast
[14] = tested on: OVCAR-3 ovarian
[15] = tested on: UACC-257 melanoma
[16] = tested on: HOP-92 NSCLC
[17] = tested on: BT-549 breast
[18] = tested on: MOLT-4 leukemia
[19] = tested on: SNB-19 CNS
[20] = tested on: NCI-H23 lung
[21] = tested on: 786-0 renal
[22] = tested on: MCF7 breast
[23] = tested on: HT29 colon
[24] = tested on: TK-10 renal
[25] = tested on: RPMI-8226 leukemia
[26] = tested on: MALME-3M melanoma
[27] = tested on: T-47D breast
[28] = tested on: UO-31 renal
[29] = tested on: OVCAR-5 ovarian
[30] = tested on: CCRF-CEM leukemia
[31] = tested on: SW-620 colon
[32] = tested on: OVCAR-4 ovarian
[33] = tested on: SF-539 CNS
[34] = tested on: HCT-116 colon
[35] = tested on: SR leukemia
[36] = tested on: EKVX NSCLC
[37] = tested on: MDA-MB-435
[38] = tested on: KM12 colon
[39] = tested on: NCI-H522 lung
[40] = tested on: SF-295 CNS
[41] = tested on: HCT-15 colon
[42] = tested on: SK-MEL-28 melanoma
[43] = tested on: U251 CNS
[44] = tested on: COLO 205 colon
[45] = tested on: A549 NSCLC
[46] = tested on: SNB-75 CNS
[47] = tested on: PC-3 prostate
[48] = tested on: NCI-H226 lung
[49] = tested on: IGROV1 ovarian
[50] = tested on: HOP-62 NSCLC
[51] = tested on: UACC-62 melanoma
[52] = tested on: NCI-H460 lung
[53] = tested on: ACHN renal
[54] = tested on: HS 578T breast
[55] = tested on: NCI/ADR-RES ovarian
[56] = tested on: SF-268 CNS
[57] = tested on: DU-145 prostate
[58] = tested on: K-562 leukemia

COc1ccc(C(=O)c2cc(OC)c(OC)c(OC)c2)cc1OC(=O)C(Cl)(Cl)Cl
active: GI50 [2] < 0.0134 µM | GI50 [3] 0.0441 µM | GI50 [4] 0.0762 µM | GI50 [6] 0.14 µM | GI50 [7] 0.0337 µM | GI50 [8] 0.0579 µM | GI50 [9] 0.0462 µM | GI50 [10] < 0.01 µM | GI50 [11] 0.0325 µM | GI50 [12] < 0.01 µM | GI50 [13] 0.158 µM | GI50 [14] 0.0278 µM | GI50 [17] 0.0118 µM | GI50 [18] < 0.0199 µM | GI50 [19] 0.0452 µM | GI50 [20] 0.0627 µM | GI50 [22] 0.0272 µM | GI50 [25] < 0.0202 µM | GI50 [30] < 0.0183 µM | GI50 [31] < 0.01 µM | GI50 [32] 0.122 µM | GI50 [33] 0.0134 µM | GI50 [34] 0.0284 µM | GI50 [35] < 0.01 µM | GI50 [37] < 0.01 µM | GI50 [38] < 0.01 µM | GI50 [39] 0.0169 µM | GI50 [40] 0.0792 µM | GI50 [41] < 0.01 µM | GI50 [43] 0.0384 µM | GI50 [45] 0.154 µM | GI50 [46] < 0.01 µM | GI50 [47] < 0.0106 µM | GI50 [49] 0.312 µM | GI50 [50] 0.083 µM | GI50 [52] 0.0388 µM | GI50 [53] 0.0329 µM | GI50 [54] 0.018 µM | GI50 [55] < 0.011 µM | GI50 [56] 0.0736 µM | GI50 [57] 0.0284 µM | GI50 [58] < 0.01 µM
inactive: GI50 [1] 85.3 µM | GI50 [5] 1.97 µM | GI50 [15] > 100 µM | GI50 [16] 0.47 µM | GI50 [21] 0.587 µM | GI50 [23] 2 µM | GI50 [24] 34.1 µM | GI50 [27] 2.4 µM | GI50 [28] 0.54 µM | GI50 [29] 4.49 µM | GI50 [36] 3.16 µM | GI50 [42] 25.1 µM | GI50 [44] 1.31 µM | GI50 [48] 15.4 µM | GI50 [51] 0.628 µM
< 0.0191 µM: TGI [10]
0.056 µM: TGI [33]
> 100 µM: TGI [1] | TGI [2] | TGI [3] | TGI [4] | TGI [6] | TGI [7] | TGI [8] | TGI [9] | TGI [12] | TGI [13] | TGI [14] | TGI [15] | TGI [16] | TGI [19] | TGI [20] | TGI [21] | TGI [22] | TGI [23] | TGI [24] | TGI [26] | TGI [27] | TGI [28] | TGI [29] | TGI [30] | TGI [31] | TGI [32] | TGI [34] | TGI [35] | TGI [36] | TGI [38] | TGI [39] | TGI [40] | TGI [41] | TGI [42] | TGI [43] | TGI [45] | TGI [46] | TGI [47] | TGI [48] | TGI [49] | TGI [50] | TGI [51] | TGI [52] | TGI [53] | TGI [54] | TGI [55] | TGI [56] | TGI [57] | TGI [58]
0.88 µM: TGI [17]
27.2 µM: TGI [25]
0.329 µM: TGI [11]
> 50.2 µM: TGI [18]
7.18 µM: TGI [5]
23.2 µM: TGI [44]
